In ChEMBL document CHEMBL1157902, “New diterpenoids from Caesalpinia species and their cytotoxic activity” (Bioorg Med Chem Lett, 2010):

Tests used:
HeLa = assay: Cytotoxicity against human HeLa cells by MTT assay; format: functional, cell-based
HL-60 = assay: Cytotoxicity against human HL60 cells by MTT assay; format: functional, cell-based

| SMILES | IC50 (HeLa) [µM] | IC50 (HL-60) [µM] | Activity (HeLa) | Activity (HL-60) |
| --- | --- | --- | --- | --- |
| CC[C@@]1(O)C(=O)OCc2c1cc1n(c2=O)Cc2cc3ccccc3nc2-1 [CAMPTOTHECIN] | 0.94 | 0.59 |  |  |
| C[C@H]1c2ccoc2C[C@H]2[C@H]1[C@@H](OC(=O)c1ccccc1)[C@@H](OC(=O)c1ccccc1)[C@@]1(O)C(C)(C)CCC[C@]21C | 33.9 | 19.8 | Dose-dependent effect | Dose-dependent effect |
| CC(=O)O[C@@H]1[C@H]2[C@@H](C)c3ccoc3C[C@@H]2[C@@]2(C)CCCC(C)(C)[C@]2(O)[C@@H]1OC(=O)/C=C/c1ccccc1 | 33.4 | 17.4 | Dose-dependent effect | Dose-dependent effect |
| C[C@H]1C2=CC(=O)O[C@]2(O)C[C@H]2[C@H]1[C@@H](O)[C@@H](OC(=O)c1ccccc1)[C@@]1(O)C(C)(C)CCC[C@]21C | 52.7 | 44.9 | Dose-dependent effect | Dose-dependent effect |
| COc1cc([C@@H]2c3cc4c(cc3[C@@H](O[C@@H]3O[C@@H]5CO[C@@H](C)O[C@H]5[C@H](O)[C@H]3O)[C@H]3COC(=O)[C@H]23)OCO4)cc(OC)c1O [ETOPOSIDE] | 8.93 |  |  |  |
